Reference: patent publication US11524945B2, “Compounds for treating ILK-mediated diseases” (The Cleveland Clinic Foundation, priority 2018, dated 2022)
Entries after “also recorded” stand apart in the source; their conditions may differ. Read-outs that look alike come from different tables or passages of the source.

What was measured:
purified recombinant ILK = purified recombinant ILK (Homo sapiens (Human), UniProt Q13418); experiment: ILK binding affinity, EnSpire fluorescence intensity
EGFR = EGFR (Homo sapiens (Human), UniProt P00533); experiment: EGFR binding affinity, EnSpire fluorescence intensity; settings: same experimental conditions as ILK
purified EGFR = purified EGFR (Homo sapiens (Human), UniProt P00533); experiment: kinase assay using purified EGFR; type: biochemical
kinases = experiment: proteomic off target analysis vs known kinase inhibitors; settings: FIG. 3, against FDA-approved kinase inhibitors
Description: Higher selectivity score means stronger off target effects.
To elucidate definitively how Csbl-1 specifically binds to ILK, we determined the crystal structure of Csbl-1/ILK complex. […] Thus our structure provides a hypothetical atomic basis for understanding why Csbl-1 binds selectively to ILK but unfavorably to EGFR (Table 1).

[1] = Permeability in Caco2 cell line; type: in vitro ADME; settings: human
[2] = Stability in PBS at pH 7.4; type: physicochemical
CYP 2A6 = CYP 2A6 (Homo sapiens (Human), UniProt P11509); experiment: CYP inhibition in human liver microsomes, 2A6; type: in vitro ADME
CYP 2C9 = CYP 2C9 (Homo sapiens (Human), UniProt P11712); experiment: CYP inhibition in human liver microsomes, 2C9; type: in vitro ADME
CYP 2C19 = CYP 2C19 (Homo sapiens (Human), UniProt P33261); experiment: CYP inhibition in human liver microsomes, 2C19; type: in vitro ADME
CYP 2E1 = CYP 2E1 (Homo sapiens (Human), UniProt P05181); experiment: CYP inhibition in human liver microsomes, 2E1; type: in vitro ADME
CYP 3A4-M = CYP 3A4-M (Homo sapiens (Human), UniProt P08684); experiment: CYP inhibition in human liver microsomes, 3A4-M; type: in vitro ADME
[3] = Metabolic stability in human liver microsomes; type: in vitro ADME; settings: for Remaining Percentage (%): Human
[4] = Metabolic stability in mouse liver microsomes; type: in vitro ADME; settings: for Remaining Percentage (%): Mouse
[5] = Log D in 1-Octanol/PBS pH 7.4; type: physicochemical
HepG2 cells = experiment: Mitochondrial toxicity in HepG2 cells; type: cell-based; settings: for IC50: Homo sapiens, HepG2 cells
[6] = Protein binding in human plasma; type: in vitro ADME
[7] = Protein binding in mouse plasma; type: in vitro ADME
[8] = Stability in mouse plasma; type: in vitro ADME
MDA-MB-231 cells = experiment: Proliferation of triple negative breast cancer MDA-MB-231 cells; type: cell-based
Experimental: Cells were seeded at 20,000 cells/ml in 12 well plates in complete media. On day 3, the compounds were added at final 2 μM and the cells were counted every 3 days. […] Cells were seeded at 10,000 cells/ml in 12 well plates in complete media. The compounds were added at final 2 μM on day 2 and the cells were counted every 2 days.

[9] = Oral toxicity in normal mice; type: in vivo; settings: 25 to 510 mg/kg every day for two weeks, CMC/TWEEN 80
[10] = tested on: Xenograft TNBC tumors (MDA-MB231); experiment: TNBC xenograft model (MDA-MB231); type: in vivo, mice; settings: 100 mg/kg five times/week
Experimental: (§1) The next step was to evaluate the effect of Csbl-1 in mice bearing TNBC tumors. Given the fact that higher ILK expression level is correlated with poor outcome and reduced survival for TNBC patients (FIG. 6) and the above TNBC cell-based data, we decided to test whether Csbl-1 would be effective in suppressing the TNBC tumors in mice. […] Xenograft TNBC tumors were generated using MDA-MB231 on 8 mice. […] when the tumors were ˜3 mm, 4 mice were fed with Csbl-1 at 100 mg/kg five times/week and the other 4 mice (control, no drug) had no Csbl-1 treatment. […] We also examined the Csbl-1 effect on the mouse models with human derived patient TNBC tumor (PDX).

[11] = tested on: human derived patient TNBC tumor (PDX); experiment: TNBC PDX mice; type: in vivo; settings: 200 mg/kg orally five times/week, in olive oil; day 27; listed as Csbl-1
Experimental: FIG. 8, panels A-C, show the effect of Csbl-1 on TNBC PDX mice. Csbl-1 was dissolved in olive oil. Five mice with TNBC were treated orally with Csbl-1 at 200 mg/kg five times/week vs 4 control mice without the treatment.
as §1

Sequence of purified recombinant ILK (Q13418 whole entry): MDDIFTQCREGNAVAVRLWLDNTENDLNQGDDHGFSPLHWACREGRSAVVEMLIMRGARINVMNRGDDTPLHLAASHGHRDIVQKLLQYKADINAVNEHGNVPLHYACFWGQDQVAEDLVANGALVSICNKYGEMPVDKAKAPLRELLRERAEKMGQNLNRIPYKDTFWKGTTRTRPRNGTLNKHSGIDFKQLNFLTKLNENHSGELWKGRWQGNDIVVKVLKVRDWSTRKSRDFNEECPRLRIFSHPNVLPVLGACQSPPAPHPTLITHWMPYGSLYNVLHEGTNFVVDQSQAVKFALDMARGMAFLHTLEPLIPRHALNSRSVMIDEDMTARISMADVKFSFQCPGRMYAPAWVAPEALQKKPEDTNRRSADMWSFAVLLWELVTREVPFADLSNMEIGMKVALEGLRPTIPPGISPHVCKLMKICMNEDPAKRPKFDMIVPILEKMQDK
Sequence of CYP 2A6 (P11509 whole entry): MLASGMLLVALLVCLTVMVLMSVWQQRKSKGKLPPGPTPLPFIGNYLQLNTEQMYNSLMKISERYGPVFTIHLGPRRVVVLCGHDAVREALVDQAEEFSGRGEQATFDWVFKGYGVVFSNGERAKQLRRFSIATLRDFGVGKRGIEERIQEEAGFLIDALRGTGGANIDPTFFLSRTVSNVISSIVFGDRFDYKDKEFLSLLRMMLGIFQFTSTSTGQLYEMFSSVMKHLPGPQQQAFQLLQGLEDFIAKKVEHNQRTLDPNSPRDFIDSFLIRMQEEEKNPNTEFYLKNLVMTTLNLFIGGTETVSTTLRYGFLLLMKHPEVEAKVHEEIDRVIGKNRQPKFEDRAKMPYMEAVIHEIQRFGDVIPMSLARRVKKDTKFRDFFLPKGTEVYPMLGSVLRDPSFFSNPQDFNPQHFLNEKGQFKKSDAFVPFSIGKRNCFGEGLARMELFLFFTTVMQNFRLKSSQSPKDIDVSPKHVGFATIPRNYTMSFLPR
Sequence of EGFR (P00533 25-1210): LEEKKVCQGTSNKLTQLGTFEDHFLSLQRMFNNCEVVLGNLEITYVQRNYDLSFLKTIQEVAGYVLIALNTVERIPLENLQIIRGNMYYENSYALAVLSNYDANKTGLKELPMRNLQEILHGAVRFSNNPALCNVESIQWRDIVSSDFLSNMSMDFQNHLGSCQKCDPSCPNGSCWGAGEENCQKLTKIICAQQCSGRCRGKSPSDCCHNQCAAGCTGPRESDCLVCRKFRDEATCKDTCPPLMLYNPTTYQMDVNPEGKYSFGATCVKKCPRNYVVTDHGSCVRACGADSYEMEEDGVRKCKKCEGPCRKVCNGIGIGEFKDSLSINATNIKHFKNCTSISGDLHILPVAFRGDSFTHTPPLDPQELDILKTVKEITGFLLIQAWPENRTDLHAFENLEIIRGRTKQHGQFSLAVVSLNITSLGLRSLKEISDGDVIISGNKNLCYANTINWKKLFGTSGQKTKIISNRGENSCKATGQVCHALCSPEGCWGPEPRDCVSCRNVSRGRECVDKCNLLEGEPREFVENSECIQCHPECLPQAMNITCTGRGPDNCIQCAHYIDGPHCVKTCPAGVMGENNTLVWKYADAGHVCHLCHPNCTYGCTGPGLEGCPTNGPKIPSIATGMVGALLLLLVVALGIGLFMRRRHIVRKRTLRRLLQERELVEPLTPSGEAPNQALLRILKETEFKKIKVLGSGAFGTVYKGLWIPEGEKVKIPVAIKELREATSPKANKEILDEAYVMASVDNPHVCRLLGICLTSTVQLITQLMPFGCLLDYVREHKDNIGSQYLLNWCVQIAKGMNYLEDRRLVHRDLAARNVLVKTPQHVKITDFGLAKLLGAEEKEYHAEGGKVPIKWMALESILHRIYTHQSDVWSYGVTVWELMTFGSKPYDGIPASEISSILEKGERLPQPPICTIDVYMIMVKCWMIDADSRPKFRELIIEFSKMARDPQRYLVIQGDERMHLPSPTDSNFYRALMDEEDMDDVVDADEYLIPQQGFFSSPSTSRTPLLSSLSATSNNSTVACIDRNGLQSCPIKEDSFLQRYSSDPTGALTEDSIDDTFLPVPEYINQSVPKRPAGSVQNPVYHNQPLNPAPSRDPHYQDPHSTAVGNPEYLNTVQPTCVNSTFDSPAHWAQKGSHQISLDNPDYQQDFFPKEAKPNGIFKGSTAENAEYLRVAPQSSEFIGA
Sequence of purified EGFR (P00533 25-1210): as above
Sequence of CYP 2E1 (P05181 whole entry): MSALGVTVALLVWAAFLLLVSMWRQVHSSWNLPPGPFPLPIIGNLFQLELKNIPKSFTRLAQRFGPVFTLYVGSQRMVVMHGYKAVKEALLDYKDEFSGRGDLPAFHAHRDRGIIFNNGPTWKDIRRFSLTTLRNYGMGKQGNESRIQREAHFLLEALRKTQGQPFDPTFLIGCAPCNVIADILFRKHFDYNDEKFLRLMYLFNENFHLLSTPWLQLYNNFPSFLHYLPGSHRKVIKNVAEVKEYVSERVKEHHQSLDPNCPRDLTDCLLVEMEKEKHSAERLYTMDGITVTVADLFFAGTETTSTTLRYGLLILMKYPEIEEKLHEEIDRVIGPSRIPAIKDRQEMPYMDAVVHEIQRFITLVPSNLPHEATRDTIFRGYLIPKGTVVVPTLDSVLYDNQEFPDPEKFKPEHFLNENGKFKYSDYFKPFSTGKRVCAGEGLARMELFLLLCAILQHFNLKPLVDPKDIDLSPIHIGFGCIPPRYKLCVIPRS
Sequence of CYP 2C9 (P11712 whole entry): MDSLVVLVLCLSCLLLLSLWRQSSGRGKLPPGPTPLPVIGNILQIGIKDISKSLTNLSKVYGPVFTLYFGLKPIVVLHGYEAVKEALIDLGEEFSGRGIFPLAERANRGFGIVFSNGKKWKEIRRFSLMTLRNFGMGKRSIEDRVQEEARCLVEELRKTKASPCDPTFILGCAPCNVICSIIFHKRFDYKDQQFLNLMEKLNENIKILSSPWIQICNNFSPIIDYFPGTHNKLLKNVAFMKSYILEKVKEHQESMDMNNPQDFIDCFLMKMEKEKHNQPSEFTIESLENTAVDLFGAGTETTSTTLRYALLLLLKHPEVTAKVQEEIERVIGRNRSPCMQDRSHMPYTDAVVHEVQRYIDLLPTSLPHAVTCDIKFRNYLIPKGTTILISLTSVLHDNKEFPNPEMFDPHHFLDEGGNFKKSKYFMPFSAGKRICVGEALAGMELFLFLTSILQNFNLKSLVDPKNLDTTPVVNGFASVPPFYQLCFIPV
Sequence of CYP 2C19 (P33261 whole entry): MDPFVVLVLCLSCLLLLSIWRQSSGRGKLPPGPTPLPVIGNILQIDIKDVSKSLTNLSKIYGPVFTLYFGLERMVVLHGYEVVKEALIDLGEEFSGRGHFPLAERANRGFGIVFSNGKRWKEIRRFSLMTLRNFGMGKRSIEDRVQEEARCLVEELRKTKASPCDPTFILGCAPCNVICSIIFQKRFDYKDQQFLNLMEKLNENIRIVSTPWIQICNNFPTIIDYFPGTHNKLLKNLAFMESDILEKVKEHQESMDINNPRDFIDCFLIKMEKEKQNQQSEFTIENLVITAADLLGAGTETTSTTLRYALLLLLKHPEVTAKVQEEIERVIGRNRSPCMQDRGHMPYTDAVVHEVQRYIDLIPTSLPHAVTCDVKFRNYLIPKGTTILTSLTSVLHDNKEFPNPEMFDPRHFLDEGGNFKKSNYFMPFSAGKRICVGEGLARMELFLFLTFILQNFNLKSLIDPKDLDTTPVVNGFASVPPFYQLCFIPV

C#Cc1cc(Nc2ncnc3cc(OCCOC)ccc23)cc(OCCOCC)c1 [Compound 1]
Binding Difference ILK (Kd)/EGFR (Kd) (purified recombinant ILK; EnSpire fluorescence intensity): 0.1565
Kd (purified recombinant ILK; EnSpire fluorescence intensity, read-out: ILK - Binding affinity): 2770 nM
Kd (purified recombinant ILK; fluorescence-based binding assay, purified ILK, read-out: KD to ILK): ~2770 nM
KD to EGFR (EGFR): too weak to be accurately determined
IC50 (purified EGFR): 77.2 µM
off-target effect to kinases (kinases): minimal off-target effect
recovery ([1]; Caco-2, Caco2, AP-BL, read-out: Recovery (%)AP-BL): 51%
recovery ([1]; Caco-2, Caco2, BL-AP, read-out: Recovery (%)BL-AP): 53.5%
efflux ratio ([1]; Caco-2, Caco2): 0.48
Papp A→B ([1]; Caco-2, Caco2, A-B): 15.4 ×10⁻⁶ cm/s
Papp B→A ([1]; Caco-2, Caco2, B-A): 7.31 ×10⁻⁶ cm/s
Remaining Percentage (%) ([2]; PBS pH 7.4, 0 min): 100.00%
Remaining Percentage (%) ([2]; PBS pH 7.4, 30 min): 102.02%
Remaining Percentage (%) ([2]; PBS pH 7.4, 60 min): 105.41%
Remaining Percentage (%) ([2]; PBS pH 7.4, 120 min): 103.04%
Remaining Percentage (%) ([2]; PBS pH 7.4, 180 min): 104.93%
Remaining Percentage (%) ([2]; PBS pH 7.4, 240 min): 99.54%
IC50 (CYP 2A6): > 50 µM
IC50 (CYP 2C9): 13.8 µM
IC50 (CYP 2C19): 10.8 µM
IC50 (CYP 2E1): > 50 µM
IC50 (CYP 3A4-M): 43.8 µM
half-life ([3]; Human Liver Microsomes): 34.8 min
microsomal CLint ([3]; Human Liver Microsomes, read-out: CLint (μL/min/mg protein)): 39.8 µL/min/mg
CLint scaled ([3]; Human Liver Microsomes, read-out: Scaled-up CLint): 49.9 mL/min/kg
Remaining Percentage (%) ([3]; With NADPH, 0 min): 100.00%
Remaining Percentage (%) ([3]; With NADPH, 15 min): 70.61%
Remaining Percentage (%) ([3]; With NADPH, 30 min): 51.77%
Remaining Percentage (%) ([3]; With NADPH, 45 min): 38.83%
Remaining Percentage (%) ([3]; With NADPH, 60 min): 30.40%
Remaining Percentage (%) ([3]; Without NADPH, 0 min): 100.00%
Remaining Percentage (%) ([3]; Without NADPH, 15 min): 98.20%
Remaining Percentage (%) ([3]; Without NADPH, 30 min): 92.81%
Remaining Percentage (%) ([3]; Without NADPH, 45 min): 89.22%
Remaining Percentage (%) ([3]; Without NADPH, 60 min): 103.59%
half-life ([4]; Mouse liver microsomes): 35.4 min
microsomal CLint ([4]; Mouse liver microsomes, read-out: CLint (μL/min/mg protein)): 39.2 µL/min/mg
CLint scaled ([4]; Mouse liver microsomes, read-out: Scaled-up CLint): 172 mL/min/kg
Remaining Percentage (%) ([4]; With NADPH, 0 min): 100.00%
Remaining Percentage (%) ([4]; With NADPH, 15 min): 72.40%
Remaining Percentage (%) ([4]; With NADPH, 30 min): 51.67%
Remaining Percentage (%) ([4]; With NADPH, 45 min): 37.39%
Remaining Percentage (%) ([4]; With NADPH, 60 min): 32.04%
Remaining Percentage (%) ([4]; Without NADPH, 0 min): 100.00%
Remaining Percentage (%) ([4]; Without NADPH, 15 min): 93.90%
Remaining Percentage (%) ([4]; Without NADPH, 30 min): 93.90%
Remaining Percentage (%) ([4]; Without NADPH, 45 min): 91.46%
Remaining Percentage (%) ([4]; Without NADPH, 60 min): 94.51%
logD [5]: 3.61
IC50 (HepG2 cells; Galactose, read-out: IC50 (μM)_Galactose): > 150 µM
IC50 (HepG2 cells; Glucose, read-out: IC50 (μM)_Glucose): > 150 µM
Compound precipitation (HepG2 cells; at 50 and 150 μM in mitochondrial toxicity assay): * Compound precipitation observed for Compound 1 at 50 and 150 μM.
recovery [6]: 98.8%
fraction unbound ([6]; read-out: % Bound (converted)): 0.0303
recovery [7]: 110%
fraction unbound ([7]; read-out: % Bound): 0.01
Remaining Percentage (%) ([8]; 0 min): 100.00%
Remaining Percentage (%) ([8]; 15 min): 96.17%
Remaining Percentage (%) ([8]; 30 min): 96.17%
Remaining Percentage (%) ([8]; 45 min): 97.56%
Remaining Percentage (%) ([8]; 60 min): 96.17%
Remaining Percentage (%) ([8]; 120 min): 93.73%
IC50 (MDA-MB-231 cells; Homo sapiens, MDA-MB-231, read-out: IC50 on MDA-MB-231): ~190 nM
effect on proliferation of MDA-MB-231 cells (MDA-MB-231 cells; compounds at final 2 μM, FIG. 5 panel B): substantially inhibited the proliferation
toxic symptoms in normal mice [9]: no toxic symptoms
weight difference vs control mice [10]: no significant weight difference
TNBC tumor growth in PDX mice [11]: effectively inhibited TNBC tumor growth; also recorded: significantly reduced
